This note sets out measurements from PMC7352977 (Cancers, 2020).

One data set relates to AsPC-1. The experiment in a line: Cell proliferation assay (CCK-8), AsPC-1. Conditions: AsPC-1 (pancreas, KRAS G12D), 72 h, CCK-8, triplicate. The class given is cell-based, human. The protocol: (§1) Cells (2 × 10^3/well, 100 μL final volume per well) for HCT116 and NCI-H460, 5 × 10^3 cells/well for SW480 and NCI-H23, and 1 × 10^4 cells/well for AsPC-1 cell lines were used in this assay (Table 4). All cells were allowed to attach for 24 h after plating, and the cells were treated with fresh media the next day. […] After the 72 h incubation, cell counting kit-8 (CCK-8) solution (10 μL/well) was added, and cells were incubated for a further 4 h at 37 °C CO2 incubator. The optical density (OD) of each well at 450 nm was measured by using the Microplate reader (BioTek, USA). Experiments were performed at least three times with representative data presented.

In a further data set the test system is A549. As to the kind of experiment: MTT, wild-type KRAS A549 cell line. The class given is cell-based. Conditions: A549, compared with other tumor cell lines.
For another data set, the system named is KRAS wild-type. The experiment in a line: [α-32P] GTP binding assay, KRAS wild-type. The class given is biochemical, human. Particulars: H-REV107 peptide, 30 °C. The protocol:
His-tagged human KRAS wild-type and mutants (G12V, G12D, G12C, G13D, and Q61H) and H-REV107 were transformed into Escherichia coli BL21 (DE3) cells. Each individual colony was inoculated into […] of Luria-Bertani (LB) medium enriched with 10 μg/mL kanamycin, after which the bacteria were grown for 16 h at 37 °C. These cells were then added to 2 L of LB containing antibiotics and grown at 37 °C until the OD600 reached 0.5–0.6. The expression of the proteins was induced by 0.5 mM isopropyl-thio-β-D-1-thiogalactopyranoside (IPTG) at 25 °C, after which the bacterial cells were harvested by centrifugation at 3830 × g for 25 min at 4 °C, then disrupted by sonication in lysis buffer (50 mM HEPES (pH 7.5), 100 mM NaCl, and 2 mM MgCl2). The supernatant was subsequently incubated with Ni-NTA resin (BioRad) for 10 min. After washing, the bound protein was eluted from the beads with elution buffer (50 mM HEPES (pH 7.5), 500 mM NaCl, 2 mM MgCl2, and 400 mM imidazole). The eluted protein was further purified by fast protein liquid chromatography (FPLC) using a Superdex 200 10/300 GL column equilibrated with 50 mM HEPES (pH 7.5), 100 mM NaCl, and 2 mM MgCl2. The purity and identity of the proteins were determined by 15% SDS-PAGE. […]
In addition, the protein complex was incubated with [α-^32P] […] Protein-bound radioactive nucleotide was quantified by liquid scintillation counting.

Data set [1] deals with AsPC-1 pancreatic cancer cells (xenograft). The experiment in a line: Tumor xenograft model, AsPC-1, nude mice. The format is in vivo. Particulars: abdominal cavity. The protocol:
Five were deployed per group.
The cells used in the cancer animal model used human-specific pancreatic cancer cell liquor AsPC-1, which was defrosted more than 2 weeks before the animal model was created to obtain stable cell alcohol conditions, and were incubated three times. The growth medium used for cell culture was used by adding 10% fetal bovine serum and 1% penicillin/streptomycin to the RPMI-1640 medium used for AsPC-1 cell lines. On the day of the production of the cancer animal model, AsPC-1 cell line was removed from the cell culture flask by 0.25% Trypsin/EDTA and washed twice with PBS. The cell line was finally harried to HBSS + matrigel (1:1). Since the number of cells to be used in the experiment was 1 × 10^6/head, the finally disheveled cell concentration was 1 × 10^7/mL. It was stored in ice until the test was used. In the case of cell transplantation, 100 μL was transplanted. The separation was performed when the average volume of the tumor had grown to more than 100 mm^3. A random separation of groups was conducted to ensure that the average tumor volume was equal in the day of separation, and the separation of groups was carried out into a total of three groups.

The subject of the next data set is NCI-H23. As to the kind of experiment: Cell proliferation assay (CCK-8), NCI-H23. Particulars: NCI-H23 (lung, KRAS G12C), 72 h, CCK-8, triplicate. The format is cell-based. The procedure:
as §1

Another data set is described as follows: Solubility in water. The format is physicochemical.
The next data set deals with NCI-H460. The experiment in a line: Cell proliferation assay (CCK-8), NCI-H460. The format is cell-based. Particulars: NCI-H460 (lung, KRAS Q61H), 72 h, CCK-8, triplicate. The procedure: as §1
The test system of a further data set is SW480. As to the kind of experiment: Cell proliferation assay (CCK-8), SW480. The class given is cell-based. Particulars: SW480 (colon, KRAS G12V), 72 h, CCK-8, triplicate. The procedure:
as §1

A further data set concerns HCT116. The experiment in a line: Cell proliferation assay (CCK-8), HCT116. The class given is cell-based. Conditions: HCT116 (colon, KRAS G13D), 72 h, CCK-8, triplicate. The procedure: as §1
For data set [2], the system named is MEK/ERK signaling pathway. As to the kind of experiment: Western blot analysis of MEK/ERK signaling, AsPC-1. The format is cell-based, human. Particulars: AsPC-1, 24 and 48 h. The protocol: (§2) Cells were plated in a 100 mm cell culture dish and incubated under standard conditions (37 °C under a humidified atmosphere containing 5% CO2) in RPMI-1640 media with 10% fetal bovine serum, 100 μ/mL penicillin, and 100 μ/mL streptomycin (Welgene, Korea). […] After treatment of 24, 48, and 72 h, the cells were lysed using protein extraction solution PRO-PREPTM (iNtRON Biotechnology, Korea) containing a protease inhibitor cocktail for 30 min at 4 °C. After this, the cells were centrifuged at 15,115 x g for 30 min. Protein content in the supernatant was measured with Bradford protein assay using bovine serum albumin (BSA). The protein was separated by 10% SDS-PAGE and transferred onto an immobilon-P membrane (Millipore, USA). Membrane was blocked in ProNA Protein-free 5X general or phospho-block solution (TransLab, Korea) for 1 h at room temperature. The membrane was incubated with primary antibodies against phosphorylated (p)-MEK1/2 (Ser217/221), total (t)-MEK1/2, p-ERK1/2 (Thr202/Tyr204), and t-ERK1/2 (Cell Signaling Technology, USA) at 4 °C overnight, washed with 1X PBS containing 0.1% Tween (PBST) three times, and incubated with anti-IgG secondary antibodies (Santa Cruz Biotechnology, USA) in PBST for 1 h. The transferred protein band was visualized with EzWestLumi plus (ATTO corporation, Japan). Probing for ß-acitn was used as a loading control.
(In general: In western blotting, separated proteins are transferred to a membrane and probed.)

Data set [3] concerns MEK/ERK signaling pathway. The experiment in a line: Western blot analysis of MEK/ERK signaling, SW480. The format is cell-based. Conditions: SW480, 24 and 48 h. The protocol:
as §2

As for LYDVAGSDKY [H-REV107 peptide], the GI50 in the data set on AsPC-1 was determined as 417 µM; in the data set on SW480 it was 358 µM. Moreover, the “effect on proliferation of wild-type KRAS A549 cell line (in words)” value in the data set on A549 is “higher concentration state of H-REV107 peptide had an effect on the proliferation”. Moreover, in the data set with KRAS wild-type, the “GTP binding activity to KRAS wild-type, decreased to” value is reported as 12%. Further, in [1] (200 mg/kg), the “growth rate of tumors, high concentration group (in words)” value is reported as “lowest growth rate”. Moreover, the “growth rate of tumors compared to Vehicle (in words)” value in data set [1] (H-REV107 peptide experimental group) is recorded as “lower growth rate of tumors”. In addition, in data set [1] (all doses (50 and 200 mg/kg), day 3 to day 32 after inoculation), the “tumor volume compared to Vehicle (in words)” value is on record as “decrease”. Besides, the “GI50 (in words)” value in the data set with NCI-H23, in the data set with NCI-H460 and with HCT116 was “millimolar ranges” in each case. In addition, the “solubility in water (in words)” value in “Solubility in water” is on record as “highly soluble”. In addition, the “expression level of total MEK/ERK protein (in words)” value in [2] and in [3] was “little effect” throughout. In data set [2], the “phosphorylation levels of MEK/ERK, tendency to decrease (in words)” value was “little”. Also, in [3], the “phosphorylation levels of MEK/ERK (in words)” value is on record as “decrease the phosphorylation levels of MEK/ERK”.

As a reminder, the GI50 is the concentration that inhibits growth by half. The low end stands for more potent growth inhibition, the high end for less potent growth inhibition.
